Broadly, the melting point is the temperature of the solid-liquid transition. `CCN1CCN(c2ccc(Nc3cc(N(C)C(=O)Nc4cc(OC)c(Cl)c(C(F)(F)F)c4Cl)ncn3)cc2)CC1` [Example 25, 3-(2,4-Dichloro-5-methoxy-3-trifluoromethyl-phenyl)-1-{6-[4-(4-ethyl-piperazin-1-yl)-phenylamino]-pyrimidin-4-yl}-1-methyl-urea] had a melting point of 143 to 144 °C.
